From the NIST ThermoML archive (doi:10.1016/j.tca.2013.03.008)

Assay: xn = mol fraction of the nth substance listed
Details: 101 kPa, Liquid; for viscosity: Capillary tube (Ostwald / Ubbelohde) method; for mass density: Vibrating tube method

CCC(=O)CC [pentan-3-one] + CCC(C)O
Details	mass density, 298.15 K [kg/m3]	mass density, 308.15 K [kg/m3]	mass density, 318.15 K [kg/m3]	viscosity, 298.15 K [mPa·s]	viscosity, 308.15 K [mPa·s]	viscosity, 318.15 K [mPa·s]
x1 = 0.0848	803.03	794.48	785.52	2.069	1.539	1.172
x1 = 0.1511	803.42	794.8	785.78	1.602	1.246	0.976
x1 = 0.2353	803.97	795.22	786.14	1.229	0.986	0.802
x1 = 0.3023	804.42	795.58	786.43	1.039	0.854	0.711
x1 = 0.3793	804.94	795.99	786.77	0.879	0.734	0.622
x1 = 0.4676	805.54	796.47	787.16	0.761	0.637	0.55
x1 = 0.4927	805.71	796.61	787.27	0.731	0.612	0.531
x1 = 0.5536	806.12	796.95	787.54	0.657	0.57	0.499
x1 = 0.6269	806.62	797.36	787.87	0.6	0.524	0.461
x1 = 0.7129	807.21	797.84	788.26	0.536	0.482	0.429
x1 = 0.8104	807.89	798.4	788.7	0.494	0.446	0.403
x1 = 0.9043	808.59	798.96	789.15	0.466	0.419	0.378
x1 = 1	809.38	799.55	789.63	0.442	0.398	0.362

CCOC(=O)CCl [ethyl chloroethanoate] + CCC(C)O
Details	mass density, 298.15 K [kg/m3]	mass density, 308.15 K [kg/m3]	mass density, 318.15 K [kg/m3]	viscosity, 298.15 K [mPa·s]	viscosity, 308.15 K [mPa·s]	viscosity, 318.15 K [mPa·s]
x2 = 0	1144.11	1131.46	1118.74	1.095	0.934	0.816
x2 = 0.1008	1111.91	1099.43	1086.98	1.055	0.895	0.778
x2 = 0.204	1078.95	1066.72	1054.42	1.041	0.877	0.755
x2 = 0.2885	1051.67	1039.71	1027.56	1.033	0.875	0.756
x2 = 0.3625	1027.45	1015.7	1003.8	1.048	0.88	0.753
x2 = 0.45	998.34	986.92	975.3	1.107	0.895	0.759
x2 = 0.5384	968.29	957.21	945.94	1.183	0.945	0.791
x2 = 0.6138	942.27	931.52	920.57	1.246	0.987	0.817
x2 = 0.6906	915.31	904.95	894.31	1.332	1.063	0.866
x2 = 0.7724	886.17	876.24	865.99	1.489	1.182	0.947
x2 = 0.8541	856.59	847.12	837.33	1.789	1.367	1.089
x2 = 0.9197	832.49	823.43	814.03	2.183	1.611	1.225
